From patent publication US11926623B2, “Heterocycle derivatives as pesticides” (Bayer Aktiengesellschaft, priority 2018, dated 2024)
Where two headings read alike, the source gives them in different places.

Assays:
[1] = system: Myzus persicae; assay: Myzus persicae spray test; assay type: in vivo; conditions: foliar, 120 h, sprayed Chinese cabbage leaf discs, all stages of the green peach aphid, after 5 days, read-out: efficacy
Protocol: Myzus persicae—Spray Test [table] To produce a suitable active compound preparation, 1 part by weight of active compound is dissolved using the stated parts by weight of solvent and made up with water containing an emulsifier concentration of 1000 ppm until the desired concentration is attained. To produce further test concentrations, the formulation is diluted with emulsifier-containing water. Discs of Chinese cabbage leaves (Brassica pekinensis) infested by all stages of the green peach aphid (Myzus persicae) are sprayed with an active compound formulation of the desired concentration. After 5 days, the efficacy in % is determined. 100% means that all the aphids have been killed; 0% means that no aphids have been killed.

[2] = system: Spodoptera frugiperda; assay: Spodoptera frugiperda spray test; assay type: in vivo; conditions: foliar, 168 h, sprayed maize leaf discs, fall armyworm caterpillars, after 7 days, read-out: efficacy
Protocol: Spodoptera frugiperda—Spray Test [table] To produce a suitable active compound preparation, 1 part by weight of active compound is dissolved using the stated parts by weight of solvent and made up with water containing an emulsifier concentration of 1000 ppm until the desired concentration is attained. To produce further test concentrations, the formulation is diluted with emulsifier-containing water. Leaf discs of maize (Zea mays) are sprayed with an active compound formulation of the desired concentration and, after drying, populated with caterpillars of the fall armyworm (Spodoptera frugiperda). After 7 days, the efficacy in % is determined. 100% means that all the caterpillars have been killed; 0% means that no caterpillar has been killed.

[3] = system: Boophilus microplus; assay: Boophilus microplus injection test; assay type: in vivo; conditions: 20 μg/animal, injection into engorged adult female cattle ticks, assessed after 7 days by laying of fertile eggs
Protocol: Boophilus microplus—Injection Test [table] To produce a suitable active compound preparation, 10 mg of active compound are mixed with 0.5 ml of solvent and the concentrate is diluted to the desired concentration with solvent. 1 μl of the active compound solution is injected into the abdomen of 5 engorged adult female cattle ticks (Boophilus microplus). The animals are transferred into dishes and kept in a climate-controlled room. Efficacy is assessed after 7 days by laying of fertile eggs. Eggs which are not visibly fertile are stored in a climate-controlled cabinet until the larvae hatch after about 42 days. An efficacy of 100% means that none of the ticks has laid any fertile eggs; 0% means that all the eggs are fertile.

[4] = system: Tetranychus urticae; assay: Tetranychus urticae spray test, OP-resistant; assay type: in vivo; conditions: 20 g/ha, sprayed bean leaf discs, all stages of the greenhouse red spider mite, after 6 days
Protocol: Tetranychus urticae—Spray Test, OP-Resistant
(§1) To produce a suitable active compound preparation, 1 part by weight of active compound is dissolved using the stated parts by weight of solvent and made up with water containing an emulsifier concentration of 1000 ppm until the desired concentration is attained. To produce further test concentrations, the formulation is diluted with emulsifier-containing water.
Discs of bean leaves (Phaseolus vulgaris) infested with all stages of the greenhouse red spider mite (Tetranychus urticae) are sprayed with an active compound formulation of the desired concentration.
After 6 days, the efficacy in % is determined. 100% means that all the spider mites have been killed; 0% means that no spider mites have been killed.

[5] = system: Phaedon cochleariae; assay: Phaedon cochleariae spray test; assay type: in vivo; conditions: 100 g/ha, sprayed Chinese cabbage leaf discs, mustard beetle larvae, after 7 days
Protocol: Phaedon cochleariae—Spray Test
as §1
Discs of Chinese cabbage leaves (Brassica pekinensis) are sprayed with an active compound formulation of the desired concentration and, after drying, populated with larvae of the mustard beetle (Phaedon cochleariae).
After 7 days, the efficacy in % is determined. 100% means that all the beetle larvae have been killed; 0% means that no beetle larvae have been killed.

[6] = system: Myzus persicae; assay: Myzus persicae oral test; assay type: in vivo; conditions: 120 h, mixed population of green peach aphids, after 5 days, read-out: efficacy
Protocol: Myzus persicae—Oral Test [table] To produce a suitable preparation of active compound, 1 part by weight of active compound is dissolved using the specified parts by weight of solvent and made up with water until the desired concentration is attained. 50 μl of the active ingredient formulation are transferred into microtitre plates and made up to a final volume of 200 μl with 150 μl of IPL41 insect medium (33%+15% sugar). Subsequently, the plates are sealed with parafilm, which a mixed population of green peach aphids (Myzus persicae) within a second microtitre plate is able to puncture and imbibe the solution through. After 5 days, the efficacy in % is determined. 100% means that all the aphids have been killed; 0% means that no aphids have been killed.

[7] = system: Ctenocephalides felis; assay: Ctenocephalides felis oral test; assay type: in vivo; conditions: 48 h, 100 ppm in citrated cattle blood, unfed adult cat fleas, after 2 days, read-out: efficacy (kill in %)
Protocol: Ctenocephalides felis—Oral Test [table] To produce a suitable active compound preparation, 10 mg of active compound are mixed with 0.5 ml of dimethyl sulfoxide. Dilution with citrated cattle blood gives the desired concentration. About 20 unfed adult cat fleas (Ctenocephalides felis) are placed into a chamber which is closed at the top and bottom with gauze. A metal cylinder whose bottom end is closed with parafilm is placed onto the chamber. The cylinder contains the blood/active compound formulation, which can be imbibed by the fleas through the parafilm membrane. After 2 days, the kill in % is determined. 100% means that all of the fleas have been killed; 0% means that none of the fleas have been killed.

[8] = log P by HPLC on reversed-phase column (C18), EEC Directive 79/831 Annex V.A8; assay type: physicochemical
Protocol: The log P values were determined according to EEC Directive 79/831 Annex V.A8 by HPLC (high-performance liquid chromatography) on a reversed-phase column (C18) using the following methods: ^[a] […] Calibration was carried out using a homologous series of straight-chain alkan-2-ones (having 3 to 16 carbon atoms) with known log P values. The values between successive alkanones are determined by linear regression.

SMILES | pest or weed control at 100 g/ha [1] [%] | pest or weed control at 100 g/ha [2] [%] | efficacy [3] [%] | efficacy [4] [%] | efficacy [5] [%] | pest or weed control at 4 ppm [6] [%] | pest or weed control at 100 ppm [7] [%] | chromatographic logP ([8]; LC-UV in the acidic range, formic acid in water / acetonitrile, read-out: log P[acidic]) | chromatographic logP ([8]; LC-UV in the neutral range, ammonium carbonate in water / acetonitrile, read-out: log P[neutral])
CCS(=O)(=O)c1c(-c2nc3cc(C(F)(F)F)cnc3n2C)nc(-n2cc(Br)c(C3CC3)n2)n1C [Example I-10] | 90 | 100 | 90 | 90 | 100 | 100 | 90 |  | 
CCS(=O)(=O)c1c(-c2nc3cc(C(F)(F)F)cnc3n2C)nc(-c2ccc(C3(C#N)CC3)cc2)n1C [Example I-5, 1-(4-{5-(Ethylsulfonyl)-1-methyl-4-[3-methyl-6-(trifluoromethyl)-3H-imidazo[4,5-b]pyridin-2-yl]-1H-imidazol-2-yl}phenyl)cyclopropanecarbonitrile] | 100 | 100 |  |  | 100 | 100 | 100 | 3.14 | 3.07
CCS(=O)(=O)c1c(-c2nc3cc(C(F)(F)F)cnc3n2C)nc(-c2cnn(C3CC3)c2)n1C [Example I-6] | 100 | 100 | 95 |  | 100 | 100 | 100 |  | 
